Results as given in US20220323614A1, “KRAS-SPECIFIC CYCLIC PEPTIDES, COMPOSITIONS, AND METHODS OF USING AND MAKING” (Indi Molecular, Inc., priority 2021, published 2022).
Where two headings read alike, the source gives them in different places. Where a SMILES comes first, the peptide text is derived from it. Bridges are numbered along the chain shown (N, C = ends). Triazole bridges read from a SMILES are 1,4-linked. Where no end group is shown, it is not given here. [ ]: non-standard residue; d: D form. The star is where a group is joined. Phe(4-guanidino) = N=C(N)Nc1ccc(C[C@H](N)C(=O)O)cc1; dLys(N3) = [N-]=[N+]=NCCCC[C@@H](N)C(=O)O; dPhe(4-Cl) = N[C@H](Cc1ccc(Cl)cc1)C(=O)O; Lys(N3) = [N-]=[N+]=NCCCC[C@H](N)C(=O)O; Morpholinoacetyl = O=C(CN1CCOCC1)*; Palmitoyl = CCCCCCCCCCCCCCCC(=O)*; dPra = C#CC[C@@H](N)C(=O)O; Pra = C#CC[C@H](N)C(=O)O

How the values were obtained:
[1] = tolerability of Indi-199 in PBS; type: in vivo, mouse; conditions: simple formulation (PBS)
[2] = mouse pharmacokinetics of Indi-199 by IV, IP and PO; type: in vivo; conditions: for half-life: read-out: T½ (converted)
Description: FIG. 14 is a graph of mouse pharmacokinetics of Indi-199, an example of the disclosed cyclic peptides, by different administration routes (IV, IP, and PO).

[3] = test system: AsPC-1 (G12D) and BxPC-3 (WT); assay: spheroid proliferation assay using CellTiter-Glo Assay; type: cell-based
Method: FIGS. 2A-2B are graphs of spheroid proliferation assay of AsPC-1 (G12D) and BxPC-3 (WT) using CellTiter-Glo Assay. […] The ligand assayed was Ac-wkyf-Lys(Pal) (SEQ ID NO:46). BxPC-3 and AxPC-1 were cultured as spheroids to compare the cell viability to that observed under adherent conditions. […] These conditions more closely parallel the tumor microenvironment.

pERK in AsPC-1 cells = assay: pERK levels in AsPC-1 cells, Western blot normalized to tubulin (pERK_G12D); type: cell-based; conditions: FIG. 3, incubated for 12 hours
Method: FIG. 3 is a graph of pERK levels measured in BxPC-3 cells (first eight bars) and AsPC-1 cells (last eight bars) in the presence of different ligands or controls. For each cell type, the graph bars are, from left to right: cell only, DMSO 1.25%, BI-2852, KRpep-2d, NH2-wkyf (SEQ ID NO:46), Ac-wkyf (SEQ ID NO:46), Pal-wkyf (SEQ ID NO:46), Ac-wkyf-Lys(Pal) (SEQ ID NO:46). The levels of pERK are normalized to tubulin. The cells were grown overnight, treated with the ligands, incubated for 12 hours, lysed, gel electrophoresed, and Western blotted. Phosphorylation of ERK is a KRAS-dependent signaling target. […] BI-2852 and Krpep-2d are two positive controls developed by Boehringer Ingelheim and Takeda.
FIG. 5 is a graph of pERK inhibition in BxPC-3 cells (first eight bars) and AsPC-1 cells (last eight bars) in the presence of the substituted ligands of FIG. 3. For each cell type, the graph bars are, from left to right: DMSO 0.5%, KRpep-2d, Ac-wkyf-Lys(Pal) (SEQ ID NO:46), Ac-w(Dab)yf-Lys(Pal), Ac-wk(4-Br-f)f-Lys(Pal), Ac-wky(4-Br-f)-Lys(Pal), Ac-wky(2-Nal)-Lys(Pal), wkyf (SEQ ID NO:46).
Tables 15A-15E provide a summary of the activity and effects of various of the disclosed wkyf-based cyclic peptides. […] MTT_G12D used AsPc-1 at 5 μM. MTT_WT used BxPC-3 at 5 μM. pERK_G12D used AsPC-1 at 4 μM for 12 hours. pERK_WT used BxPC-3 at 4 μM for 12 hours.

[4] = test system: AsPC1 (G12D mutant) cell line, BxPC3 (wild type), and SW 1990 (G12D mutant); conditions: confocal microscopy, Streptavidin-phycoerythrin (PE) visualization
Method: A biotinylated KRAS(G12D) targeted cyclic peptide and an equivalent agent with membrane targeting capability were tested for membrane association using confocal microscopy. Binding to AsPC1 (G12D mutant) cell line, BxPC3 (wild type), and SW 1990 (G12D mutant) were compared.

KRAS (G12D) = target: T1, KRAS (G12D) (Homo sapiens, UniProt P01116, G12D); assay: Western blot of KRAS (G12D) levels in pancreatic cell lysate; type: cell-based; conditions: pancreatic cancer cells incubated with the peptide
T1 construct: decreasing or depleting levels of KRAS (G12D) in pancreatic cancer cells; endogenous in cells
Description: The disclosed cyclic peptides can be used, for example, in methods for inhibiting the KRAS (G12D) oncoprotein. Such methods can include treating cancer cells having the KRAS (G12D) mutation. […] In some forms, a cyclic peptide of Formula I can be used to inhibit KRAS (G12D) expressed in any cancer cell. For example, the KRAS (G12D) oncoprotein has been identified in pancreatic, colorectal, lung, biliary tract, and ovarian cancer cells.

[5] = in vivo, mouse, 20 mg/kg IP, 4 mg/mL in PBS
[6] = in vivo, mouse, 20 mg/kg IV bolus, 4 mg/mL in PBS
[7] = in vivo, mouse, 50 mg/kg PO, 5 mg/mL in PBS

## CCCCCCCCCCCCCCCC(=O)NCCCC[C@H](NC(=O)[C@@H]1CCCCn2cc(nn2)C[C@H](NC(=O)CN2CCOCC2)C(=O)N[C@H](Cc2c[nH]c3ccccc23)C(=O)N[C@H](CCCCN)C(=O)N[C@H](Cc2ccc(O)cc2)C(=O)N[C@H](Cc2ccc(Cl)cc2)C(=O)N1)C(N)=O [Indi-199] (Morpholinoacetyl-[Pra][dW][dK][dY][dPhe(4-Cl)][Lys(N3)]K(Palmitoyl)-NH2; triazole 1-6)
[1]
  tolerability: well tolerated
[2]; [5]
  AUC(0-inf): 316 µM·h
  AUC(0-t): 213 µM·h
  Cmax: 12 µM
  Tmax: 6 h
[2]; in vivo, mouse, 20 mg/kg IP, 4 mg/mL in PBS, terminal elimination phase inadequately defined
  half-life: 804 min
[2]; [6]
  AUC(0-inf): 403 µM·h
  AUC(0-t): 402 µM·h
  Cmax: 252 µM
  Tmax: 0 h
  clearance: 0.587 mL/min/kg
  half-life: 163 min
[2]; in vivo, mouse, 20 mg/kg IV bolus, 4 mg/mL in PBS, read-out: Vdss
  Vd: 0.0976 L/kg
[2]; [7]
  AUC(0-t): 0.182 µM·h
  Cmax: 0.033 µM
  Tmax: 4 h
  bioavailability: 0.018%
[2]; iv and ip administration, FIG. 14
  exposure: sustained exposure

## CCCCCCCCCCCCCCCC(=O)NCCCC[C@@H](NC(=O)[C@H]1CCCCn2cc(nn2)C[C@@H](NC(C)=O)C(=O)N[C@@H](Cc2c[nH]c3ccccc23)C(=O)N[C@@H](CCCCN)C(=O)N[C@@H](Cc2ccc(O)cc2)C(=O)N[C@@H](Cc2ccccc2)C(=O)N1)C(N)=O [Ac-wkyf-Lys(Pal)] (Ac-[dPra]WKYF[dLys(N3)][dK](Palmitoyl)-NH2; triazole 1-6)
[3]; FIG. 2B, spheroid vs adherent culture, AsPC-1 (G12D) vs BxPC-3 (WT)
  selectivity under spheroid culturing: selectivity persist under spheroid culturing
[3]; FIGS. 2A-2B, CellTiter-Glo
  reduction of cell viability, spheroid compared to adherent conditions: more effective at reducing cell viability
pERK in AsPC-1 cells
  pERK inhibitory effect: most inhibitory effects

## Biotin-wky(4-Cl-F)-Lys(Pal)
[4]
  membrane association: demonstrated membrane association

## QNGnfY (QN[Phe(4-guanidino)]Y; also: cyclic, closure not given here, D-amino acids, places not given here)
KRAS (G12D)
  levels of KRAS (G12D): capable of decreasing or depleting levels of KRAS (G12D)
